According to patent US5767129A, “Substituted quinolines and isoquinolines as calcium channel blockers, their preparation and the use thereof” (Warner-Lambert Company, priority 1996, dated 1998):

Assays:
[1] = target: T1, N-type calcium channels (IMR-32 cells) (Homo sapiens, UniProt Q00975); assay: N-type Ca2+ channel blocking in IMR-32 cells using the fluorescent Ca2+ indicator Indo-1; type: cell-based; settings: 5 μM nitrendipine to block L-type channels, KCl depolarization, 30° C., read-out: Inhibition of Ca^+2 Influx in IMR-32 Cells IC50
T1 construct: host or cells: IMR-32 cells, differentiated with dibutyryl cAMP and bromodeoxyuridine
Procedure: Measurement of N-type Ca2+ Channel Blocking Potencies of Compounds in IMR-32 Cells Using the Fluorescent Ca2+ Indicator Indo-1 IMR-32 cells are a human tumoral cell line of neural origin. […] Calcium flux into these cells may be induced by stimulation with elevated potassium concentrations. The L-channel component of calcium flux may be blocked by adding 5 μM nitrendipine. The remaining component of calcium entry into the IMR-32 cells is due to calcium flux through N-type calcium channels. Intracellular calcium concentrations are measured using the fluorescent calcium indicator Indo-1. The effect of drug concentration on calcium uptake is studied. Methods The IMR-32 cell line was obtained from the American Type Culture Collection (Rockville, Md.). Cells were grown in Eagle's Minimum Essential Medium with Earle's salts supplemented with 10% fetal bovine serum, 2 mM L-Gln and antibiotic/antimicotic mixture (Gibco). At approximately 80% confluency, differentiation was induced by the addition of 1 mM dibutyryl cAMP and 2.5 μM bromodeoxyuridine to the medium. After 7 to 13 days of differentiation, cells were detached using 0.5 mM EDTA and loaded with five 5 μM Indo-1 acetoxymethyl ester (Molecular Probes, Eugene, Oreg.) at 30° C. for 45 minutes. Loaded cells were washed twice, resuspended (~10^7 cells/mL) in assay buffer (10 mM HEPES/Tris pH 7.4 in Hank's Balanced Salt Solution without bicarbonate or phenol red containing 0.5% bovine serum albumin) and kept on ice until use. Fluorescence measurements were carried out in a Photon Technology International (PTI, South Brunswick, N.J.) Model RF-[…] spectrofluorometer with dual emission monochromators using excitation at 350 nm and emission at 400 and 490 nm. The instrument was equipped with a thermostatted cuvette holder with stirring capabilities as well as with a computer-controlled pump which allowed for reagent addition during measurement. Instrument control and data collection was done by PTI's OSCAR software running on an IBM compatible computer. […] At 20 seconds after the start of reading, cells were depolarized by the addition of 160 μL of stimulation solution (1M KCl, 68 mM CaCl2) to the cuvette via the computer-controlled pump. Ratio of dual emission signals (400 nm/490 nm), which is proportional to intracellular Ca^2+ concentration, was plotted against time, and the difference between maximal response after stimulation and basal value (before stimulation) was determined. […] IC50 values of test compounds were calculated by fitting a four-parameter logistic function to the data using the least squares method.

ischemia and pain = settings: Bowersox et al. 1994; cited from earlier work

T1 sequence (Q00975 whole entry): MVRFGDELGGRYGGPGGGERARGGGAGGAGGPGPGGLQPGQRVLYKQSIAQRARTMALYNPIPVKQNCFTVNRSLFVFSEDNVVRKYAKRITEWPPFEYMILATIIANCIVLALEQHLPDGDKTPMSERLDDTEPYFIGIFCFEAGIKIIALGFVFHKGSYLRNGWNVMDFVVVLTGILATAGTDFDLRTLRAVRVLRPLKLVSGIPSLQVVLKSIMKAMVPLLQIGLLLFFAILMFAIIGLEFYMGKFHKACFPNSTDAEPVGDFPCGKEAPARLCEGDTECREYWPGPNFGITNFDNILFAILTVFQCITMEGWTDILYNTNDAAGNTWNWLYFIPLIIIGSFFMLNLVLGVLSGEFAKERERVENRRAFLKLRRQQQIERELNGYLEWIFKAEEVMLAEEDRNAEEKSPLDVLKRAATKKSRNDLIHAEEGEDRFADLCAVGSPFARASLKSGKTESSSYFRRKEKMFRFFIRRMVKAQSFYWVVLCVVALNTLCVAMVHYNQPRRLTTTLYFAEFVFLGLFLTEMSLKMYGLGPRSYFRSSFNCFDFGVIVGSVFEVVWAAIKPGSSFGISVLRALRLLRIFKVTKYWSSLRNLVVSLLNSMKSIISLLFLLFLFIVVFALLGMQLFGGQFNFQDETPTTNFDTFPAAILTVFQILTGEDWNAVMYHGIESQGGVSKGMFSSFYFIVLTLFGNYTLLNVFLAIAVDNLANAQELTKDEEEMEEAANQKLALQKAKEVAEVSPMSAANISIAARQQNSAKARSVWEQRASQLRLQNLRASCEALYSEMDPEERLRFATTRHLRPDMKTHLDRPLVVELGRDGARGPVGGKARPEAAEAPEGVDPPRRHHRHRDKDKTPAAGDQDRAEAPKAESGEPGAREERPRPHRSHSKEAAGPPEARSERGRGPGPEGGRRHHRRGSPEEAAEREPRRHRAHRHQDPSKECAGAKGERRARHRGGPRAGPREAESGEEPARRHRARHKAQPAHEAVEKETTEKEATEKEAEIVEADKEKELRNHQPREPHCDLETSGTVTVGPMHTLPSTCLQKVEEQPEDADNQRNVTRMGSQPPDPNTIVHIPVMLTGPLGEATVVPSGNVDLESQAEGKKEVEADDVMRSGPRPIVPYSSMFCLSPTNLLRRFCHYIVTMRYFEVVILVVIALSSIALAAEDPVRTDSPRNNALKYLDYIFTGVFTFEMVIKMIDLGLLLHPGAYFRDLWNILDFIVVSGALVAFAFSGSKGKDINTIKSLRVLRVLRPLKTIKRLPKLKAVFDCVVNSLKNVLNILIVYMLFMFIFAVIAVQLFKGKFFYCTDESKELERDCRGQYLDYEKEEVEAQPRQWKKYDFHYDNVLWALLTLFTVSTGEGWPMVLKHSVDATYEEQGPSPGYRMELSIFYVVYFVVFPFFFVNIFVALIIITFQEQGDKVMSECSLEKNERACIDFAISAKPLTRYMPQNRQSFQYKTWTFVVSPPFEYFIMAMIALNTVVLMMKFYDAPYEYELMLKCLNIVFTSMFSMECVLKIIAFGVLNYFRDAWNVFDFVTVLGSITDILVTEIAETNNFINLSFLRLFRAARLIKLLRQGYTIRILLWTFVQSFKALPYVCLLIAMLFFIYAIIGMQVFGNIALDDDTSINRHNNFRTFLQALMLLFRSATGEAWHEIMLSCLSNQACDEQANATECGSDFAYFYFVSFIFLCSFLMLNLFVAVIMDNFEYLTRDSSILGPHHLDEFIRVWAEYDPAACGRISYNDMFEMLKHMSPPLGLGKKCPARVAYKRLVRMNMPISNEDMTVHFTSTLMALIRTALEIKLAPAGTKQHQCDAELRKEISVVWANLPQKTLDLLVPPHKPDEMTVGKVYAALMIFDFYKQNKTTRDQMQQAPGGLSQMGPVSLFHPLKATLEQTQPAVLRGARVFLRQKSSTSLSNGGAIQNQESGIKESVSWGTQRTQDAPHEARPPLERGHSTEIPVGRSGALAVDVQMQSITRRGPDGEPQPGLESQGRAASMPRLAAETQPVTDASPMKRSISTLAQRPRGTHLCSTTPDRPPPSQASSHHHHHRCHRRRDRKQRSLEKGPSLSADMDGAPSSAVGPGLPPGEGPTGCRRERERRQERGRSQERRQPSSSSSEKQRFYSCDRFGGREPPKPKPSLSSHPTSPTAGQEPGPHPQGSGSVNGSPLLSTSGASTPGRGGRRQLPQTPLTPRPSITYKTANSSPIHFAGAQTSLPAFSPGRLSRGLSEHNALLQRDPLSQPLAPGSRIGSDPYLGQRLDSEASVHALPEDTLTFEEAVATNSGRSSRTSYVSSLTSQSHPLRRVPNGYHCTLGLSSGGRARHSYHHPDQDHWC

Row | SMILES | IC50 [1] | activity in models of ischemia and pain (in words) (ischemia and pain)
1 | Oc1c(CNC2CCCCC2)ccc2c1CCN(CCCC(c1ccccc1)c1ccccc1)C2 [Example 7, 6-Cyclohexylaminomethyl-2-(4,4-diphenylbutyl)-1,2,3,4-tetrahydroisoquinolin-5-ol] | 1000 nM | 
2 | Oc1c(CN2CCCCCC2)ccc2c1CCN(CCCC(c1ccc(F)cc1)c1ccc(F)cc1)C2 [Example 11, 6-Azepan-1-ylmethyl-2-[4,4-bis-(4-fluorophenyl)-butyl]-1,2,3,4-tetrahydroisoquinolin-5-ol] | 1300 nM | 
3 | CSCC[C@@H]1NC(=O)[C@H](CC(C)C)NC(=O)[C@H](CCCNC(=N)N)NC(=O)[C@H](CO)NC(=O)[C@@H]2CSSC[C@@H]3NC(=O)[C@H](CO)NC(=O)CNC(=O)[C@H]([C@@H](C)O)NC(=O)[C@H](CSSC[C@H](N)C(=O)N[C@@H](CCCCN)C(=O)NCC(=O)N[C@@H](CCCCN)C(=O)NCC(=O)N[C@@H](C)C(=O)N[C@@H](CCCCN)C(=O)N2)NC(=O)[C@H](CSSC[C@@H](C(N)=O)NC(=O)[C@H](CCCCN)NC(=O)CNC(=O)[C@H](CO)NC(=O)[C@H](CCCNC(=N)N)NC3=O)NC(=O)[C@H](CC(=O)O)NC(=O)[C@H](Cc2ccc(O)cc2)NC1=O [SNX-111] |  | demonstrated activity in a number of models of ischemia and pain
4 | Oc1c(CN2CCCCCC2)ccc2c1CCN(CCCC(c1ccccc1)c1ccccc1)C2 [Example 6, 6-Azepan-1-ylmethyl-2-(4,4-diphenylbutyl)-1,2,3,4-tetrahydroisoquinolin-5-o] | 820 nM | 
5 | c1ccc(C(CCCN2CCc3c(ccc4c3OCN(C3CCCCC3)C4)C2)c2ccccc2)cc1 [Example 8, 2-Cyclohexyl-7-(4,4-diphenylbutyl)-2,3,5,6,7,8-hexahydro-1H-4-oxa-2,7-diazaphenanthrene] | 1100 nM | 
